According to PMC11173422, “Substitution-Induced Mechanistic Switching in SNAr-Warheads for Cysteine Proteases” (Molecules, 2024):
Like-named read-outs stand apart in the source and are kept apart here.

Legend:
Rhodesain (TbCatL) [1] = target: T1, Rhodesain (TbCatL) (Trypanosoma brucei rhodesiense, UniProt Q95PM0); assay: Fluorimetric rhodesain inhibition assay with Z-Phe-Arg-AMC; assay type: biochemical; conditions: for Mode of inhibition (time dependency, reversibility): from progress curves
T1 construct: stably transformed with the rhodesain ΔC gene cloned into the pPICZαA vector; made in house; host or cells: Pichia pastoris X-33 (pPICZαA, secreted into the culture supernatant)
T1 sequence (Q95PM0 entry or part of it): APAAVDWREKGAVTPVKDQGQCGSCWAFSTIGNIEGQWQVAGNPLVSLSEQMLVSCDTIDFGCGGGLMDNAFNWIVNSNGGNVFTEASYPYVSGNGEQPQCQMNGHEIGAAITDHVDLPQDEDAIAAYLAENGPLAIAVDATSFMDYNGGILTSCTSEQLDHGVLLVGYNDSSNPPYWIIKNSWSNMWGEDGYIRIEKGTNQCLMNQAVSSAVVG
Procedure: Inhibition of rhodesain was assessed using Z-Phe-Arg-AMC as a fluorogenic substrate. IC50 or KI^app were determined depending on the time dependency of the progress curves. Because a competitive mode of inhibition can be assumed, Ki (for reversible inhibition) and KI (for irreversible inhibition) were calculated using the Cheng–Prusoff equation [30].
Fluorimetric enzyme assays were performed as described in the literature. Information regarding buffers, concentrations, the employed substrate, as well as data analysis for linear and non-linear regression is given in the SI. In short, the cleavage of a fluorogenic substrate by the protease of interest is detected in the presence of different concentrations of inhibitors. […] For the irreversible compound with non-linear regression, the kinetic kinact value was also plotted, from which k2nd was calculated.
To investigate this influence, its inhibition of […]
nucleophilic reducing agent for enzyme activation).
Reversibility assessment for time-dependent inhibitor 9
After this incubation period, the samples
Rhodesain, CatL, CatB Assays
Continuous fluorometric measurements with a Tecan Spark 10M reader in a 96 well plate format was used to evaluate activity. Rhodesain, HsCatB and HsCatL were diluted in their respective activation buffer prior to use. Rhodesain was incubated in this for 30–60 min prior to use. The enzyme of interest (5 µL) was incubated with the inhibitor in question (10 µL), and its specific substrate (5 µL) in the respective assay buffer. The fluorescence signal was measured every 30 s for 10 min at room temperature with the corresponding excitation/emission wavelengths (λex = 380 nm / λem = 460 nm). The final concentrations and buffer compositions are depicted in SI-Table S1. Inner-filter effect corrections were performed as described in literature if deviations >5% were detected.
SI-Table S1: Information on assay conditions. [E] = final enzyme concentration, [S] = final substrate concentration in well.
For the evaluation of 9 in absence of DTT (depicted in SI-Figure S5): 5 nM final rhodesain concentration that was activated before in presence of TCEP (alternative activation buffer: 5 mM DTT → 5 mM TCEP) […]
Time-independent behavior
For inhibitors that behaved time-independently during the measurements (i.e., F-t-diagrams show constant slope), IC50 values using defined dilution series for each compound were calculated with GraphPad PRISM by fitting the remaining enzymatic activity to a four parameter IC50 equation with Y [%] as the residual enzyme activity, Ymax as the maximum value of the dose response curve at inhibitor concentrations [I] = 0 µM, Ymin as the minimum value at high inhibitor concentrations and s as the Hill […]
y [%residual activity]=௬ౣ౗౮ ି௬ౣ౟౤ೞ + y୫୧୬ eq. 1
It is assumed that the inhibitors bind competitively in respect to the substrate. Due to the dependence of the IC50 value on the substrate affinity and concentration, the Ki values were calculated with the Cheng-Prusoff equation, using the final substrate concentration [S] and the Michaelis-Menten constant KM to […]
For inhibitors that behaved time-dependently during the measurements (i.e., F-t-diagrams show reducing slopes over time), KIapp and kinact values using defined dilution series for each compound were calculated

[2] = Stability towards general substitution reactions (water, DTT); assay type: physicochemical; conditions: NH4OAc buffer pH 5.5, with or without DTT; UV spectra and LCMS
Procedure: 0.1 inhibitor concentration
SI-Figure S1: (A) Absorption spectra of 2, 3 and 9 with different concentrations, visualizing a potential need for mathematical correction at high concentrations for nitroanilines. ( B) Experimental proof that mathematical correction of attenuation of AMC fluorescence is only necessary for inhibitor concentrations ≥10 µM. For 2 and 3 at 10 µM attenuation of fluorescence signal is 14 and 11 %, respectively. At concentrations relevant for IC50 evaluation, no relevant interference is detected.
Stability measurements towards general substitution reactions
2, 3 and 9 (from 20 mM stock solutions in DMSO) were diluted into NH4OAc buffer (pH 5.5) to final concentrations of 100 µM, 125 µM or 1 mM and incubated in buffer alone or in presence of as much DTT as present in the fluorimetric rhodesain assay and the MALDI-TOF experiment, respectively. This was recorded with absorption spectroscopy (results depicted in SI-Figure S2) on a Tecan Spark 10M plate reader in UV-transparent 96-well plates (Greiner UV-Star®, 655801, 200 µL volume per sample) or with LCMS (see “measurement setup for LCMS” as described under the method for PAMPA; results depicted […]
system at pH 5.5 over the course of the time necessary for the employed assays. There is a small difference detectable in reactivity of 3 with 5 mM DTT: a slight but time-dependent change in UV-spectrum was found where the maximum at 265 nm decreased in intensity, indicating a small degree of degradation […]
that is not observed with lower DTT concentration or with 2 at all. The formation takes place on a much larger timescale as the time for detection in the assays (minutes vs. hours) and is therefore irrelevant to the performed evaluations. […]
repeated LCMS analysis indicates the formation of the phenol (substitution of fluoride) over the course of hours. This also seems to happen in the DMSO stock solution to a small degree after some usage (explains the presence of phenol at 0 min). Accordingly, in presence of DTT, both the phenol and the thioether are detected by MS for this compound. […]

rhodesain [3] = target: T2, rhodesain (Trypanosoma brucei rhodesiense, UniProt Q95PM0); conditions: 1.5 h incubation (9: 400 µM; K11777: 500 nM), diluted 1:100, n = 2; uninhibited 0.68 ± 0.05 FU/s
T2 sequence (Q95PM0 entry or part of it): as above
Procedure: rhodesain was reassessed in DTT-free conditions (tris(2-carboxyethyl)phosphine = TCEP used as a non-
The reactivity towards water should not be seriously
To assess reversibility of the time-dependent inhibitor [4], and to therefore discriminate between slow-
reversible and irreversible inhibition, rhodesain was incubated with compound 9 for 1.5 h, at an inhibitor
concentration of 400 µM (7.5x KI) to enable the quantita tive progression of a covale nt irreversible reaction
if one is possible. The same incubation was performed with DMSO alone as a negative control and in
presence of 500 nM K11777 as a positive irreversible control. After this incubation period, the samples
were diluted 1:100 (to 4 µM of compound 9 (0.075x KI)) into assay buffer containing substrate to record
the degree of recovery of enzymatic activity over the course of 10 min.
Raw activity of rhodesain after dilution was

rhodesain [4] = target: T2, rhodesain; assay: MALDI-TOF-MS (sinapinic acid matrix) adduct detection; assay type: binding; set-up: stably transformed with the rhodesain ΔC gene cloned into the pPICZαA vector; made in house; host or cells: Pichia pastoris X-33 (pPICZαA, secreted into the culture supernatant); conditions: 100 µM inhibitor, 10 µM rhodesain, acidic sinapinic acid matrix
Procedure: Using MALDI-TOF-MS, differentiation between non-covalent and covalent ligand-target complexes is possible if acidic matrices are used that interfere with ionic and dipole interactions (i.e., suppress non-covalent interactions).
Protein mass spectrometry was performed as described before, but also described in detail in the SI. In short, rhodesain was incubated with a surplus of inhibitor under conditions similar to those of the enzyme assays described above to enable complex formation. This sample was desalted and then incorporated into a sinapinic acid matrix, which was then subjected to mass spectrometry. Data analysis was performed using mMass.
Mass spectrometric experiments were performed as described before. Lyophilized rhodesain was first […]
manufacturer’s instructions.
Then, the mixtures were left in the fume hood for cocrystallization until dry.
TOF/TOF mass spectrometer (Bruker Daltonik GmbH, Bremen, Germany). The instrument is equipped […]
cropping from 22–27 kDa was performed.
Baseline was corrected with standard settings. […]

[5] = cited from earlier work
[6] = Parallel artificial membrane permeability assay (PAMPA); conditions: pH 7.4
Procedure: An artificial membrane consisting of phosphatidylcholine dissolved in n-dodecane was employed to control equilibration between two connected aqueous compartments, of which one contained the compound of interest. This model for compound permeation through a cell membrane was incubated, and the resulting concentration in the acceptor compartment was quantified spectroscopically.
A general literature-known principle was used [11]. Propranolol hydrochloride was sourced from Changzou Yabang Pharmaceutical (Fagron GmbH & Co. KG). Candesartan cilexetil was sourced as a chemical reference standard from the EDQM (catalogue code Y0001388).
Incubation setup consisted of donor (top) plate (Sigma Aldrich, MAIPNTR10), 5 µL artificial membrane
(1 % (w/v) L-α-phosphatidyl choline, Sigma Aldrich P3556, in n-dodecane, Sigma Aldrich 8205430100),
transparent measurement plate (Greiner UV-Star®, 655801), Tecan Spark 10M® well plate reader, 200 µL

[7] = Aqueous solubility observed in PAMPA set-up; assay type: physicochemical; conditions: buffered aqueous solution pH 7.4, 5% DMSO
Procedure: acceptor (bottom) plate (Greiner, 655074). Measurement setup for direct spectroscopy consisted of UV- […]
sample volume, λ = 200–650 nm. […]
elution (0.7 mL/min). Injection volume was 100 µL. Areas of peaks in the chromatogram (detection-λ = 210 nm) were used to calculate the AUCs. Retention time and mass spectrum recorded in positive ionization mode were used to assign species. Analysis was performed using MestreNova. […]
donor plate. This was sealed (Greiner, 676070, Viewseal sealer). 400 µL of acceptor solution was applied to the acceptor plate. Incubation setup was assembled and left for 7 h. After this time, acceptor and reference solutions were analyzed.
The acceptor solutions of those were measured
P௔௣௣ = −(௏ವ ା௏ಲ )∗஺∗௧ eq. 6

Rhodesain (TbCatL) [8] = target: T1, Rhodesain (TbCatL); conditions: lead compound, published data ref 17; cited from earlier work
Trypanosoma brucei = system: Trypanosoma brucei; set-up: method as in PMID 32210166; conditions: cell cultures, free acid; cited from earlier work
rhodesain [9] = target: T2, rhodesain; set-up: stably transformed with the rhodesain ΔC gene cloned into the pPICZαA vector; made in house; host or cells: Pichia pastoris X-33 (pPICZαA, secreted into the culture supernatant); method as in PMID 32210166, PMID 34378914; conditions: cited from earlier work

Question: For “N-(5-fluoro-2,4-dinitrobenzoyl)-L-phenylalanyl-L-leucine [Compound 9]”, which Ki (Rhodesain (TbCatL) [1]; DTT-free conditions, TCEP for enzyme activation, read-out: KIapp) is on record?
Answer: 200 µM

Question: What about the Ki (Rhodesain (TbCatL) [1]; KI, irreversible time-dependent inhibition, from KI^app by Cheng–Prusoff, read-out: Ki or KI) of the same molecule?
Answer: 53 µM

Question: What about the “Mode of inhibition (time dependency, reversibility)” value (“Mode of inhibition” below) (Rhodesain (TbCatL) [1]) of the same molecule?
Answer: irreversible

Question: What about the Ki (Rhodesain (TbCatL) [1]; standard conditions with DTT, read-out: KIapp) of the same molecule?
Answer: 700 µM

Question: What about the “Reactivity towards unspecific nucleophiles (water and DTT)” value [2] of the same molecule?
Answer: relevant reactivity towards unspecific nucleophiles

Question: What about the “Activity of rhodesain after incubation and subsequent dilution” value (rhodesain [3]) of the same molecule?
Answer: −0.01 ±0.00 FU/s

Question: What about the “Adduct with rhodesain in MALDI-TOF-MS” value (rhodesain [4]) of the same molecule?
Answer: An adduct was also found for 9, albeit with a shift lower than the mass of the inhibitor

Question: What does the source list for `CCOc1nc2cccc(C(=O)OC(C)OC(=O)OC3CCCCC3)c2n1Cc1ccc(-c2ccccc2-c2nnn[nH]2)cc1` (stereo not drawn) [Candesartan cilexetil, reference compound]?
Answer: Lit. Papp ([5]; literature value ref 37): 0.6 [37] ×10^−6 cm/s; Papp at 7 h, 100 µM [6]: 1.3 ± 0.2 ×10⁻⁶ cm/s

Question: Which “Lit. Papp” value ([5]; literature value ref 35, 36) does the source give for `CC(C)NCC(O)COc1cccc2ccccc12` (stereo not drawn) [Propranolol, reference compound] here?
Answer: 8–14 [35, 36] ×10^−6 cm/s

Question: What about the Papp at 7 h, 100 µM [6] of the same molecule?
Answer: 9.9 ± 1 ×10⁻⁶ cm/s

Question: For `CC(C)C[C@H](NC(=O)[C@H](Cc1ccccc1)Nc1cc(F)c([N+](=O)[O-])cc1[N+](=O)[O-])C(=O)OC(C)(C)C` [Compound 21], which aqueous solubility [7] is on record?
Answer: poor aqueous solubility

Question: And the Papp at 7 h, 100 µM [6]?
Answer: 3.4 ± 1.8 ×10⁻⁶ cm/s

Question: For `CC(C)C[C@H](NC(=O)[C@H](Cc1ccccc1)Nc1ccc([N+](=O)[O-])c([N+](=O)[O-])c1)C(=O)O` [Compound 2], which IC50 (Rhodesain (TbCatL) [1]) is on record?
Answer: 0.0364 ± 0.0023 µM

Question: What about the Ki (Rhodesain (TbCatL) [1]) of the same molecule?
Answer: 0.0028 ± 0.0002 µM

Question: What about the “Mode of inhibition” value (Rhodesain (TbCatL) [1]) of the same molecule?
Answer: time-independent

Question: And the “Reactivity towards unspecific nucleophiles (water and DTT)” value [2]?
Answer: no relevant tendency towards either side reaction

Question: What about the “Adduct with rhodesain in MALDI-TOF-MS” value (rhodesain [4]) of the same molecule?
Answer: no adduct was found

Question: With `CN1CCN(C(=O)N[C@@H](Cc2ccccc2)C(=O)N[C@H](/C=C/S(=O)(=O)c2ccccc2)CCc2ccccc2)CC1` [Compound K11777, reference compound] as the molecule, how does the “Activity of rhodesain after incubation and subsequent dilution” value (rhodesain [3]) read?
Answer: −0.01 ±0.00 FU/s

Question: And the “Adduct with rhodesain in MALDI-TOF-MS” value (rhodesain [4])?
Answer: showed the expected mass shift representative of covalent adduct formation

Question: With `CC(C)C[C@H](NC(=O)[C@H](Cc1ccccc1)Nc1cc([N+](=O)[O-])c([N+](=O)[O-])cc1F)C(=O)O` [Compound I] as the molecule, how does the Ki (Rhodesain (TbCatL) [8]) read?
Answer: 0.004 ± 0.0013 µM

Question: What about the EC50 (Trypanosoma brucei) of the same molecule?
Answer: 20 µM

Question: And the “Adduct with rhodesain in MALDI-TOF-MS” value (rhodesain [9])?
Answer: no adduct could be detected

Question: Which IC50 (Rhodesain (TbCatL) [1]) does the source give for `CC(C)C[C@H](NC(=O)[C@H](Cc1ccccc1)Nc1cc(F)c([N+](=O)[O-])cc1[N+](=O)[O-])C(=O)O` [Compound 3] here?
Answer: 0.0245 ± 0.0017 µM

Question: And the Ki (Rhodesain (TbCatL) [1])?
Answer: 0.0019 ± 0.0001 µM

Question: And the “Mode of inhibition” value (Rhodesain (TbCatL) [1])?
Answer: time-independent

Question: And the “Reactivity towards unspecific nucleophiles (water and DTT)” value [2]?
Answer: no relevant tendency towards either side reaction

Question: What about the “Adduct with rhodesain in MALDI-TOF-MS” value (rhodesain [4]) of the same molecule?
Answer: an adduct corresponding to the mass of the inhibitor was observed

Question: What does the source list for `CC(C)C[C@H](NC(=O)[C@H](Cc1ccccc1)Nc1ccc([N+](=O)[O-])c([N+](=O)[O-])c1)C(=O)OC(C)(C)C` [Compound 20]?
Answer: aqueous solubility [7]: poor aqueous solubility; Papp at 7 h, 100 µM [6]: 9.3 ± 0.7 ×10⁻⁶ cm/s
